# Biological target: T1, CFTR (Homo sapiens, UniProt P13569, DEL508-508)
# T1 construct: endogenous in cells; host or cells: primary human bronchial epithelial cells, F508del/MF genotype
# Assay: HBE Assay: Ussing chamber assay of CFTR-mediated short-circuit currents in F508del/MF-HBE cells with 1 μM Ivacaftor
# Format: cell-based
# Conditions: range of concentrations with 1 μM Ivacaftor, 18-24 hours, 20% human serum
# How it was run: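 F508del/MF-HBE cells at air-liquid interface >14 days were incubated 18-24 h at 37° C with corrector (concentration range or fixed 10 μM) plus 1 μM Ivacaftor in 20% human serum, compounds kept throughout. Ussing chamber, Vhold=0 mV, 37° C, apical amiloride 30 μM; ISC (μA/cm^2) from peak 20 μM forskolin response to steady state after CFTR inhibitor cocktail.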
# T1 sequence (P13569 with tags, fused parts or gaps DEL508-508): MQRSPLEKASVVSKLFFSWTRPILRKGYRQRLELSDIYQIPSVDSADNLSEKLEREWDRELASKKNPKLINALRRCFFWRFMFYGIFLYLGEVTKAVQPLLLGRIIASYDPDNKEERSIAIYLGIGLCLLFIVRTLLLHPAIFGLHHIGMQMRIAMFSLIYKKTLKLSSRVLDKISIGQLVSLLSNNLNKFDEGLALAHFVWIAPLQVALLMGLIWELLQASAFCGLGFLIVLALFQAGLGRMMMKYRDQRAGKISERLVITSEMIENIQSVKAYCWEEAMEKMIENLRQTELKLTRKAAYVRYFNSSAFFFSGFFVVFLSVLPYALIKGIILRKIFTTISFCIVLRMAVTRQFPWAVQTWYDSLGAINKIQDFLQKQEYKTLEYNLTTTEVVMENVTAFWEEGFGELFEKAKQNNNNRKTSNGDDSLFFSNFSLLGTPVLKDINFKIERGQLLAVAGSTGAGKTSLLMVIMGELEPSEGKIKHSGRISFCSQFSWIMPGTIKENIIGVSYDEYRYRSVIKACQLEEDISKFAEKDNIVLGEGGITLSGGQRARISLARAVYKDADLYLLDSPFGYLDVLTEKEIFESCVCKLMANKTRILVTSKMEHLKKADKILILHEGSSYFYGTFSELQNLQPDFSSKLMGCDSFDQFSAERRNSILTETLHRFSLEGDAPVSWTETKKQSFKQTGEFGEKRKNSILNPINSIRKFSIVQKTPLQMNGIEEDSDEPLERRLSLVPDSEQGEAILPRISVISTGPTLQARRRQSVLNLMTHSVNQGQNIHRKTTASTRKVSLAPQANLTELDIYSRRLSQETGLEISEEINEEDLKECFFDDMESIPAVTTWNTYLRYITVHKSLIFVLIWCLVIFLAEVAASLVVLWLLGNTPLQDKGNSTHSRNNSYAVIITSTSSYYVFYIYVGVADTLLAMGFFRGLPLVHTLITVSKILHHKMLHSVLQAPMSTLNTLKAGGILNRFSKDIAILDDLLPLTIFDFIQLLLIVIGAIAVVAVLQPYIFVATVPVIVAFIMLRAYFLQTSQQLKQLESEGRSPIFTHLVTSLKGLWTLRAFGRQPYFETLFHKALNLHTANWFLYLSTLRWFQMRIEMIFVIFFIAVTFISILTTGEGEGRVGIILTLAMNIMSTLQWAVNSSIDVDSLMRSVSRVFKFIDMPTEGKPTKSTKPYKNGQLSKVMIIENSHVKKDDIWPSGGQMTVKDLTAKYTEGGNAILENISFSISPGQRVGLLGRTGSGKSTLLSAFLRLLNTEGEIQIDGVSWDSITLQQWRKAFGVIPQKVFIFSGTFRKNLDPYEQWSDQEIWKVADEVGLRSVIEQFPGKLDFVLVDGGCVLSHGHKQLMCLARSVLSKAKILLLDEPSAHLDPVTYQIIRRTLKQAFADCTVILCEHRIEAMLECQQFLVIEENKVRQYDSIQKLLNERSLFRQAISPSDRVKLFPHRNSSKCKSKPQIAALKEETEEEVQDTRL
row,EC50,SMILES
1,< 1000 nM,Cc1cccc(C)c1-c1nc2nc(c1F)OC[C@@H](CC(C)(C)C)N(Cc1ncc(OC(C)C)cn1)C(=O)c1cccc(c1)S(=O)(=O)N2 [Compound 335]
2,< 1000 nM,Cc1cccc(C)c1-c1nc2nc(c1F)OC[C@@H](CC(C)(C)C)N(Cc1ncc(OC3CCC3)cn1)C(=O)c1cccc(c1)S(=O)(=O)N2 [Compound 336]

# Same assay, conditions: single fixed concentration of 10 μM with 1 μM Ivacaftor, 18-24 hours, 20% human serum
row,HBE Activity at 10 μM (%),SMILES
1,+++ (+++ is >60%),"Cc1cccc(CC(C)(C)C)c1-c1nc2nc(c1C)OC[C@@H](CC(C)(C)C)N(Cc1ncc(OC3CCC3)cn1)C(=O)c1cccc(c1)S(=O)(=O)N2 (atropisomer, axis not shown) [Compound 353]"

# Same assay, conditions: single fixed concentration of 10 μM, with 1 μM Ivacaftor, 20% human serum
row,SMILES,HBE Activity at 10 μM
1,"Cc1cccc(CC(C)C)c1-c1nc2nc(c1C(F)(F)F)OC[C@@H](CC(C)(C)C)N(Cc1ccc(N3CCOCC3)cn1)C(=O)c1cccc(c1)S(=O)(=O)N2 (atropisomer, axis not shown) [Compound 247]",++ (++ is 30-60%)
2,Cc1cccc(C)c1-c1nc2nc(c1C)OC[C@@H](CC(C)(C)C)N(Cc1ncc(N3CCC(C)(C)CC3)cn1)C(=O)c1cccc(c1)S(=O)(=O)N2 [Compound 192],+++ (+++ is >600%)
3,"Cc1cccc(CC(C)C)c1-c1nc2nc(c1C(F)(F)F)OC[C@@H](CC(C)(C)C)N(Cc1ncc(N3CCOCC3)cn1)C(=O)c1cccc(c1)S(=O)(=O)N2 (single isomer, unassigned) [Compound 213]",+++ (+++ is >600%)
4,Cc1cccc(OC(C)C)c1-c1nc2nc(c1C)OC[C@@H](CC(C)(C)C)N(Cc1cnc(N(C)CC(C)(C)C)cn1)C(=O)c1cccc(c1)S(=O)(=O)N2 [Compound 222],+++ (+++ is >600%)

# Now from value to compound:
row,HBE Activity at 10 μM,SMILES
1,+++ (+++ is >600%),"Cc1cccc(CC2CCCC2)c1-c1nc2nc(c1C)OC[C@@H](CC(C)(C)C)N(Cc1ccc(N3CCOCC3)cn1)C(=O)c1cccc(c1)S(=O)(=O)N2 (atropisomer, axis not shown) [Compound 288]"
2,++ (++ is 30-60%),"Cc1cccc(CC2CCCCC2)c1-c1nc2nc(c1C(F)(F)F)OC[C@@H](CC(C)(C)C)N(Cc1ccc(N3CCOCC3)cn1)C(=O)c1cccc(c1)S(=O)(=O)N2 (atropisomer, axis not shown) [Compound 249]"
3,++ (++ is 30-60%),"Cc1cccc(CC2CCCCC2)c1-c1nc2nc(c1C(F)(F)F)OC[C@@H](CC(C)(C)C)N(Cc1ncc(N3CCOCC3)cn1)C(=O)c1cccc(c1)S(=O)(=O)N2 (atropisomer, axis not shown) [Compound 245]"
4,+++ (+++ is >600%),Cc1cccc(C)c1-c1nc2nc(c1C)OC[C@@H](C(C)C)N(Cc1ncc(OC(C)C)cn1)C(=O)c1cccc(c1)S(=O)(=O)N2 [Compound 197]

# Same assay, conditions: with 1 μM Ivacaftor, 18-24 hours, 20% human serum
SMILES,EC50,HBE Max Activity
Cc1cccc(C)c1-c1nc2nc(c1C)OC[C@@H](CC(C)C)N(Cc1ncc(OC(C)C)cn1)C(=O)c1cccc(c1)S(=O)(=O)N2 [Compound 193],< 1000 nM,+++ (+++ is >600%)
"Cc1cccc(CC(C)C)c1-c1nc2nc(c1C)OC[C@@H](CC(C)(C)C)N(Cc1cnc(C3CCOCC3)cn1)C(=O)c1cccc(c1)S(=O)(=O)N2 (atropisomer, axis not shown) [Compound 313]",< 1000 nM,+++ (+++ is >600%)
"Cc1cccc(CC2CCCCC2)c1-c1nc2nc(c1C)OC[C@@H](CC(C)(C)C)N(Cc1cccc(N(C)C(C)C)n1)C(=O)c1cccc(c1)S(=O)(=O)N2 (atropisomer, axis not shown) [Compound 255]",< 1000 nM,+++ (+++ is >600%)
"Cc1cccc(CC2CCCC2)c1-c1nc2nc(c1C)OC[C@@H](CC(C)(C)C)N(Cc1ccc(N3CCOCC3)cn1)C(=O)c1cccc(c1)S(=O)(=O)N2 (atropisomer, axis not shown) [Compound 289]",< 1000 nM,+++ (+++ is >600%)
"Cc1cccc(CC2CCCCC2)c1-c1nc2nc(c1C)OC[C@@H](CC(C)(C)C)N(Cc1cccc(N(C)CC(C)(C)C)n1)C(=O)c1cccc(c1)S(=O)(=O)N2 (atropisomer, axis not shown) [Compound 259]",< 1000 nM,+++ (+++ is >600%)
"Cc1cccc(C(C)C)c1-c1nc2nc(c1C)OC[C@@H](CC(C)(C)C)N(Cc1ccc(N3CCOCC3)cn1)C(=O)c1cccc(c1)S(=O)(=O)N2 (atropisomer, axis not shown) [Compound 299]",< 1000 nM,+++ (+++ is >600%)
"Cc1cccc(CC(C)C)c1-c1nc2nc(c1C)OC[C@@H](CC(C)(C)C)N(Cc1ncc(N3CCOCC3)cn1)C(=O)c1cccc(c1)S(=O)(=O)N2 (atropisomer, axis not shown) [Compound 296]",< 1000 nM,+++ (+++ is >600%)
"Cc1cccc(CC2CCCCC2)c1-c1nc2nc(c1C)OC[C@@H](CC(C)(C)C)N(Cc1ncc(N3CC(C)(C)C3)cn1)C(=O)c1cccc(c1)S(=O)(=O)N2 (atropisomer, axis not shown) [Compound 253]",< 1000 nM,+++ (+++ is >600%)
"Cc1cccc(CC2CCCCC2)c1-c1nc2nc(c1C)OC[C@@H](CC(C)(C)C)N(Cc1ncc(N(C)C)cn1)C(=O)c1cccc(c1)S(=O)(=O)N2 (atropisomer, axis not shown) [Compound 303]",< 1000 nM,+++ (+++ is >600%)
"Cc1cccc(COC(C)C)c1-c1nc2nc(c1C)OC[C@@H](CC(C)(C)C)N(Cc1ncc(N3CCC(C)(C)C3)cn1)C(=O)c1cccc(c1)S(=O)(=O)N2 (single isomer, unassigned) [Compound 221]",< 1000 nM,+++ (+++ is >600%)

# More lines, now with the values ahead:
EC50,HBE Max Activity,SMILES
< 1000 nM,+++ (+++ is >600%),"Cc1cccc(CC(C)C)c1-c1nc2nc(c1C)OC[C@@H](CC(C)C)N(Cc1cnc(C3CCOCC3)cn1)C(=O)c1cccc(c1)S(=O)(=O)N2 (atropisomer, axis not shown) [Compound 314]"
< 1000 nM,+++ (+++ is >600%),"Cc1cccc(C)c1-c1nc2nc(c1C)OC[C@@H](CC(C)(C)C)N(c1cnn(C)c1Br)C(=O)c1cccc(c1)S(=O)(=O)N2 [Compound 56, (11R)-12-(5-Bromo-1-methyl-pyrazol-4-yl)-6-(2,6-dimethylphenyl)-11-(2,2-dimethylpropyl)-7-methyl-2,2-dioxo-9-oxa-2λ^6-thia-3,5,12,19-tetrazatricyclo[12.3.1.14,8]nonadeca-1(18),4(19),5,7,14,16-hexaen-13-one]"
< 1000 nM,+++ (+++ is >600%),"Cc1cccc(CC2CCCCC2)c1-c1nc2nc(c1C)OC[C@@H](CC(C)(C)C)NC(=O)c1cccc(c1)S(=O)(=O)N2 (atropisomer, axis not shown) [Compound 311]"
< 1000 nM,+++ (+++ is >600%),"Cc1ccnc(CN2C(=O)c3cccc(c3)S(=O)(=O)Nc3nc(c(C)c(-c4c(C)cccc4CC4CCCCC4)n3)OC[C@H]2CC(C)(C)C)n1 (atropisomer, axis not shown) [Compound 258]"
1000 to 3000 nM,+++ (+++ is >600%),"Cc1cccc(CC2CCCCC2)c1-c1nc2nc(c1C)OC[C@@H](CC(C)(C)C)N(Cc1ccc(OC(C)C)cn1)C(=O)c1cccc(c1)S(=O)(=O)N2 (atropisomer, axis not shown) [Compound 279]"
< 1000 nM,+++ (+++ is >600%),"Cc1cccc(CC2CCCCC2)c1-c1nc2nc(c1C)OC[C@@H](CC(C)(C)C)N(Cc1ncc(N3CCC(C)(C)CC3)cn1)C(=O)c1cccc(c1)S(=O)(=O)N2 (atropisomer, axis not shown) [Compound 260]"
< 1000 nM,+++ (+++ is >600%),"Cc1cccc(CC2CCCCC2)c1-c1nc2nc(c1C)OC[C@@H](CC(C)(C)C)N(Cc1nccc(N(C)C)n1)C(=O)c1cccc(c1)S(=O)(=O)N2 (atropisomer, axis not shown) [Compound 261]"
< 1000 nM,+++ (+++ is >600%),"Cc1cccc(CC(C)C)c1-c1nc2nc(c1C(F)(F)F)OC[C@@H](CC(C)(C)C)N(Cc1ccc(N3CCOCC3)cn1)C(=O)c1cccc(c1)S(=O)(=O)N2 (atropisomer, axis not shown) [Compound 246]"
< 1000 nM,+++ (+++ is >600%),Cc1cccc(C)c1-c1nc2nc(c1C)OC[C@@H](CC(C)C)N(Cc1ncc(N3CCC(C)(C)C3)cn1)C(=O)c1cccc(c1)S(=O)(=O)N2 [Compound 199]
< 1000 nM,+++ (+++ is >600%),"Cc1cccc(CC2CCCCC2)c1-c1nc2nc(c1C)OC[C@@H](CC(C)(C)C)N(Cc1nccc(N3CCOCC3)n1)C(=O)c1cccc(c1)S(=O)(=O)N2 (atropisomer, axis not shown) [Compound 263]"
< 1000 nM,+++ (+++ is >600%),Cc1cccc(CC2CCCCC2)c1-c1nc2nc(c1C)OC[C@@H](CC(C)(C)C)N(Cc1ncc(OC(C)C)cn1)C(=O)c1cccc(c1)S(=O)(=O)N2 [Compound 234]
< 1000 nM,+++ (+++ is >600%),"Cc1cccc(CC2CCCCC2)c1-c1nc2nc(c1C)OC[C@@H](CC(C)(C)C)N(Cc1ccc(C3CCCCC3)cn1)C(=O)c1cccc(c1)S(=O)(=O)N2 (atropisomer, axis not shown) [Compound 277]"
< 1000 nM,+++ (+++ is >600%),"Cc1cccc(CC(C)C)c1-c1nc2nc(c1C)OC[C@@H](CC(C)(C)C)N(Cc1ncc(N(C)CC(C)(C)C)cn1)C(=O)c1cccc(c1)S(=O)(=O)N2 (single isomer, unassigned) [Compound 211]"
< 1000 nM,+++ (+++ is >600%),"COc1ccc(CN2C(=O)c3cccc(c3)S(=O)(=O)Nc3nc(c(C)c(-c4c(C)cccc4CC4CCCCC4)n3)OC[C@H]2CC(C)(C)C)nc1 (atropisomer, axis not shown) [Compound 302]"

# Same assay, conditions: with 1 μM Ivacaftor, 18-24 hours, 20% human serum, compared to known Vertex corrector with 18 μM Tezacaftor and 1 μM Ivacaftor, read-out: HBE Max activity (%)
row,Emax,SMILES
1,> 60%,Cc1cccc(C)c1-c1nc2nc(c1F)OC[C@@H](CC(C)(C)C)N(Cc1ncc(OC(C)C)cn1)C(=O)c1cccc(c1)S(=O)(=O)N2 [Compound 335]
2,> 60%,Cc1cccc(C)c1-c1nc2nc(c1F)OC[C@@H](CC(C)(C)C)N(Cc1ncc(OC3CCC3)cn1)C(=O)c1cccc(c1)S(=O)(=O)N2 [Compound 336]

# Reference: patent US20230374038A1, “MODULATORS OF CYSTIC FIBROSIS TRANSMEMBRANE CONDUCTANCE REGULATOR” (VERTEX PHARMACEUTICALS INCORPORATED, priority 2020, published 2023)
